Reference: US20120219538A1, “STABILIZED PROTEIN FORMULATIONS AND USE THEREOF” (THERAPEOMIC AG, priority 2009, published 2012)
Like-named read-outs stand apart in the source and are kept apart here.

Molecular target: T1, salmon calcitonin (sCT) (Oncorhynchus keta, UniProt P01263)
T1 construct: Salmon calcitonin is a 32-amino acid polypeptide hormone; purchased Therapeomic Inc., Switzerland
T1 sequence (P01263 83-114 limits assumed): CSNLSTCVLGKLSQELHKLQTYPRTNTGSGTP
Format: physicochemical
Conditions: 10 mM sodium citrate buffer pH 6, 1:1 molar ratio; for slope of aggregation curve: Nile red fluorescence at 620 nm; for lag time of aggregation: OD at 450 nm
Procedure: Salmon calcitonin (Therapeomic Inc., Switzerland) in a final concentration of 2.5 mg/ml per well with and without the respective excipients to be tested, i.e. non-conjugated mPEG-amines and non-conjugated hydrophobic headgroups were prepared in 4 different buffer systems: 10 mM sodium acetate pH 5, 10 mM sodium citrate pH 5, 10 mM sodium citrate pH 6, 10 mM sodium phosphate buffer pH 8. Samples are prepared two times and nile red in a final concentration of 1 μM is added to one of each. Aggregation is followed in UV-transparent 96-well plates or 384-well Costar® plates from Corning (Corning Life Sciences, Schiphol, Netherlands) by a microplate reader (Tecan Safire™ microplate reader, Tecan Group Ltd, Männedorf, Switzerland) by monitoring turbidity, nile red fluorescence and intrinsic fluorescence of the protein/peptide drug or the hydrophobic head-group. After finishing the aggregation kinetics, final spectra of nile red fluorescence, UV and protein/peptide drug or hydrophobic head group fluorescence were measured.
Aggregation was checked in absence of any excipient, in presence of equimolar amounts of dansylamide, mPEG-amine 2 kD and dansyl-mPEG 2 kD, respectively.

For salmon calcitonin [sCT], the “slope of aggregation curve” value (Table 2) was 1843 a.u./hrs, the “lag time of aggregation” value (Table 2) was 3.5 h and the “Nile red fluorescence at 620 nm” value (Table 2, time 0 hrs) was 1058. The “OD at 450 nm” value (Table 2, time 0 hrs) was 0.10, the “Nile red fluorescence at 620 nm” value (Table 2, time 9.5 hrs) was 18581 and the “OD at 450 nm” value (Table 2, time 9.5 hrs) was 0.22. For the same substance, the “Nile red fluorescence at 620 nm” value (Table 2, time 20 hrs) was 27276, the “OD at 450 nm” value (Table 2, time 20 hrs) was 0.63 and the “Nile red fluorescence at 620 nm” value (Table 2, time 100 hrs) was 25328. The “OD at 450 nm” value (Table 2, time 100 hrs) was 0.68, the “Nile red fluorescence at 620 nm” value (Table 2, time 166 hrs) was 24729 and the “OD at 450 nm” value (Table 2, time 166 hrs) was 0.64. For the same substance, the “slope of aggregation curve” value (Table 3, higher detector sensitivity) was 5546 a.u./hrs, the “lag time of aggregation” value (Table 3) was 4.2 h and the “OD at 450 nm” value (Table 3, time 0 hrs) was 0.11. For the same substance, the “Nile red fluorescence at 620 nm” value (Table 3, time 0 hrs, higher sensitivity of the fluorescence detector than Table 2) was 4560, the “Nile red fluorescence at 620 nm” value (Table 3, time 5 hrs, higher sensitivity of the fluorescence detector than Table 2) was 38483 and the “OD at 450 nm” value (Table 3, time 6.2 hrs) was 0.15. The “OD at 450 nm” value (Table 3, time 10 hrs) was 0.22, the “Nile red fluorescence at 620 nm” value (Table 3, time 10 hrs, higher sensitivity of the fluorescence detector than Table 2) was 61019 and the “Nile red fluorescence at 620 nm” value (Table 3, time 13.5 hrs, higher sensitivity of the fluorescence detector than Table 2) was over 65000. The “Nile red fluorescence at 620 nm” value (Table 3, time 20 hrs, higher sensitivity of the fluorescence detector than Table 2) was over 65000, the “OD at 450 nm” value (Table 3, time 30.5 hrs) was 0.49 and the “OD at 450 nm” value (Table 3, time 140 hrs) was 0.56.
